US4816444A, “Cell growth inhibitory substance” (priority 1987, dated 1989)
Converted amounts (≈) assume the structure as drawn.

How the values were obtained:
B16 Melanoma [1] = conditions: 11 μg/kg; cited from earlier work
[2] = test system: P388 lymphocytic leukemia; experiment: NCI murine P388 lymphocytic leukemia (PS system), in vivo
Method: Unit dosage forms of dolastatin 10 prepared according to selected compositions described in Example 1 were screened utilizing Protocol 1,200 described in Cancer Chemotherapy Reports, parts 3, Vol. 3, No. 2, September 1972, pp 9 et seq for lymphocytic leukemia P388. Dolastatin 10 provided a 69-102% life extension at 1-4 μg/Kg host body weight against the murine P388 lymphocytic leukemia.

P388 in vitro cell line = P388 in vitro cell line growth inhibition; assay type: cell-based, murine
[3] = test system: L1210 Lymphocytic Leukemia; experiment: L1210 lymphocytic leukemia, murine in vivo system
B16 Melanoma [4] = experiment: NCI murine B16 melanoma, in vivo
Method: A unit dosage form of dolastatin 10, prepared according to Example 1, was challenged with B-16 murine melanoma and obtained a 42% to 138% life extension at 1.44 to 11.1 μg/Kg using the National Cancer Institute accepted protocol.

M5076 Ovary Sarcoma = experiment: M5076 ovary sarcoma, murine in vivo system
[5] = test system: Human Melanoma Xenograph (LOX); experiment: NCI human melanoma xenograph to nude mouse (LOX); assay type: in vivo
Method: Unit dosage forms of dolastatin 10 were prepared according to Example 1 and were screened using accepted protocols of the National Cancer Institute. The preparation obtained a 17-67% cure rate at 3.25-26 μg/kg host body weight against NCI murine human melanoma xenograph.

[6] = test system: Human Mammary Xenograph MX-1; experiment: Human mammary xenograph to nude mouse MX-1 (life extension); assay type: in vivo
MX-1 = MX-1 tumor regression; assay type: in vivo, human
[7] = test system: Human Melanoma Xenograph (LOX); experiment: NCI human melanoma xenograph to nude mouse (LOX); assay type: in vivo; conditions: 52 μg/kg

## dolastatin 1
B16 Melanoma [1]
  cure rate: 33%

## CC[C@H](C)[C@@H]([C@@H](CC(=O)N1CCC[C@H]1[C@H](OC)[C@@H](C)C(=O)N[C@@H](Cc1ccccc1)c1nccs1)OC)N(C)C(=O)[C@@H](NC(=O)[C@H](C(C)C)N(C)C)C(C)C [Dolastatin 10]
[2]; 2 μg/kg
  T/C: 199
[2]; 4 μg/kg
  T/C: 202
[2]; 8 μg/kg
  T/C: 161
[2]; 13.5 μg/kg
  T/C: 173
[2]; 08-27 μg/kg
  T/C: toxic
P388 in vitro cell line
  ED50: 0.046 ng/mL (≈ 0.0586 nM)
[3]; 1.63 μg/kg
  T/C: 120
[3]; 3.25 μg/kg
  T/C: 139
[3]; 6.5 μg/kg
  T/C: 135
[3]; 13 μg/kg
  T/C: 152
[3]; 26 μg/kg
  T/C: toxic
B16 Melanoma [4]; 3.4 μg/kg
  T/C: 171
B16 Melanoma [4]; 4.0 μg/kg
  T/C: 205
B16 Melanoma [4]; 6.67 μg/kg
  T/C: 182
B16 Melanoma [4]; 11.11 μg/kg
  T/C: 238
M5076 Ovary Sarcoma; 3.25 μg/kg
  T/C: 151
M5076 Ovary Sarcoma; 6.5 μg/kg
  T/C: 142
M5076 Ovary Sarcoma; 13 μg/kg
  T/C: 166
M5076 Ovary Sarcoma; 24 μg/kg
  T/C: toxic
M5076 Ovary Sarcoma; 26 μg/kg
  T/C: toxic
[5]; 3.25 μg/kg
  T/C: 170
[5]; 6.5 μg/kg
  T/C: 206
  cures: 16.6%
[5]; 13 μg/kg
  T/C: 301
  cures: 33.3%
[5]; 26 μg/kg
  T/C: 301
  cures: 50%
[5]; 3.25-26 μg/kg
  curative response / cure rate: 17-67%
[6]; 6.25 μg/kg
  T/C (life extension): 178
[6]; 13 μg/kg
  T/C (life extension): 137
[6]; 26 μg/kg
  T/C (life extension): toxic
[6]; 52 μg/kg
  T/C (life extension): toxic
MX-1; 6.25 μg/kg
  MX-1 Tumor Regression, T/C: 69
MX-1; 13 μg/kg
  MX-1 Tumor Regression, T/C: 61
MX-1; 26 μg/kg
  MX-1 Tumor Regression, T/C: 50
MX-1; 52 μg/kg
  MX-1 Tumor Regression, T/C: 14
[7]
  T/C: toxic
  cures: 66.6%
